Patent publication US7772212B2, “Isomaltooligosaccharides to inhibit avian pathogenic intestinal bacteria” (priority 2003, dated 2010)

Assays:
[1] = system: α-Glucosidase (maltase; EC 3.2.1.20); experiment: Kinetic assay for α-glucosidase; format: biochemical; conditions: 0%, 0.25%, 0.5% test sugar; maltose 0, 50, 100, 250 mM; 37° C., pH 7
Experimental: α-Glucosidase (maltase; EC 3.2.1.20), β-NAD, glucose dehydrogenase (EC 1.1.147) and other reagent chemicals were obtained from the Sigma Chemical Co. (St. Louis, Mo.). The kinetic assays were based on the following reaction;
The kinetic assays were all performed in 96-well plates and read at wavelength 320 nm in a SPECTRAmax Plus microtiter plate reader (Molecular Devices Corp., Sunnyvale, Calif.) at 37° C. The software package Softmax™ was used for data analysis. α-Glucosidase (maltase; EC 3.2.1.20), β-NAD, and glucose dehydrogenase (EC 1.1.147) solutions were prepared with 0.1M K2HPO4 (pH 7) buffer. Each well contained 25 μl of 0.13 IU/ml glucose dehydrogenase, 25 μl of 1.65 IU/ml of α-glucosidase, and 20 μl of 12 mM of G-NAD in a total volume of 200 μl with different combinations of sugars and 0.1M K2HPO4 (pH 7) buffer. Absorbance change with time was measured at 320 nm.
In order to determine the role of branching in the inhibition, the Ki values for panose and isomaltotriose were also determined.

S. typhimurium = experiment: Growth test with panose and maltooligosaccharides; format: cell-based, Salmonella typhimurium; conditions: combinations of panose and maltooligosaccharides (DP 4 to DP 10), anaerobic, 37° C.
Experimental: (§1) To further determine whether Leuconostoc IMO acts as a starch-metabolism inhibitor, B. longum and S. typhimurium were grown in different combinations of panose and maltooligosaccharides (from DP 4 to DP 10). As the concentration of panose in the growth medium increased, the growth of S. typhimurium slowed but B. longum growth increased. (FIGS. 11A and 11B, respectively).

B. longum = experiment: Growth test with panose and maltooligosaccharides; format: cell-based, Bifidobacterium longum; conditions: combinations of panose and maltooligosaccharides (DP 4 to DP 10), anaerobic, 37° C.
Experimental: as §1

OC[C@H]1O[C@H](OC[C@H]2O[C@H](OC[C@H]3OC(O)[C@H](O)[C@@H](O)[C@@H]3O)[C@H](O)[C@@H](O)[C@@H]2O)[C@H](O)[C@@H](O)[C@@H]1O (stereo partly shown) [Isomaltotriose, isomaltotriose]
Inhibition of α-glucosidase (maltase) activity [1]: not inhibitory

OC[C@H]1O[C@H](OC[C@H]2O[C@H](O[C@H]3[C@H](O)[C@@H](O)C(O)O[C@@H]3CO)[C@H](O)[C@@H](O)[C@@H]2O)[C@H](O)[C@@H](O)[C@@H]1O (stereo partly shown) [panose]
Inhibition of α-glucosidase (maltase) activity [1]: showed an inhibition | Growth of S. typhimurium as panose concentration in medium increased (S. typhimurium): slowed | Growth of B. longum as panose concentration in medium increased (B. longum): increased
